Measurements as given in patent US20160237450A1, “METHOD FOR ENHANCING DROUGHT TOLERANCE IN PLANTS” (Plant Response Biotech S.L., priority 2015, published 2016).

What was measured:
Type in all cases: in vivo
[1] = tested on: Arabidopsis thaliana plants (Col-0); experiment: Drought fitness of wild type Arabidopsis sprayed with TMAO di-hydrate; settings: Col-0 sprayed 1 g/L after first wilting cycle, scale 0 dead to 4 healthy
Description: Transgenic FMO3X and FMO8X genotypes and wild type Col-0 seeds of Arabidopsis thaliana were sown, grown and treated as described above. For the control group of both wild-type and transgenic plants, six week old plants were irrigated with 40 ml of water twice in the week, while “drought” treated plants of both wild-type and transgenic plants were not irrigated until all the plants were wilted.
After the first cycle of wilting wild type plants were sprayed with 1 g/L TMAO di-hydrate to determine if the wilted wild type plants could recover and perform as well as the transgenic plants in the following cycles of wilting. Fitness values were assigned using the following criteria: 0: Dead plant; 1: Critically damaged plant symptoms; 2: Moderate damaged plant symptoms; 3: Slightly damaged plant symptoms; and 4: Healthy plant.

[2] = tested on: tomato plants ('Moneymaker'); experiment: Tomato plant survival under extreme drought
Description: For each drought or limited water experiment 480 seeds (of either pepper, barley, tomato, cucumber or corn) were sown, producing 384 plants in 512 cm^3 pots (4 plants per pot). Plants were grown under chamber conditions at 21° C. for 3 weeks. Then, the plants were moved to a greenhouse, where average temperature was 25° C. to 28° C. Spray and irrigation treatments as described herein were done when the plants had two extended leaves and the next pair of leaves were coming up.
Treatments: Twelve pots (containing 48 plants) were irrigated with 40 ml of either: water, 0.1 g/L TMAO di-hydrate solution, 1.0 g/L TMAO di-hydrate solution, or 5.5 g/L TMAO di-hydrate solution. Another set of 12 pots containing 48 plants were sprayed with 40 ml of either water (3.3 ml in average per pot), a solution containing 0.1 g/L TMAO di-hydrate solution, 1.0 g/L TMAO di-hydrate, or 5 g/L, or 10 g/L TMAO di-hydrate. Further sets of 12 pots containing 48 plants were both sprayed with each initial solution TMAO di-hydrate solution and further irrigated with the same TMAO di-hydrate solutions used in the control water sprayed plants. All pots were also watered with 40 ml of water. The sprayed plants were watered with the same volume of water as the “irrigated plants). The pots were located on plastic glass to maintain constant moisture and to avoid liquid spillage during watering. Trays containing the pots were located on greenhouse tables. The distribution of the trays on the table and the position on the pots in the tray was changed every week to avoid position effects.
After the treatments described above, the plants were not watered until the pots completely lost their moisture, taking about 4 to 8 days depending on the season, at which point the plants were extremely wilted for the extreme drought experiments. The plants were then watered once with solutions containing the different amounts of TMAO di-hydrate (0.1 g/L, 1.0 g/L, 5 g/L, or 10 g/L) or just water, after which the plants were left to lose their moisture completely again for three consecutive cycles of watering after wilting. For the “extreme drought” experiments plants were allowed to wilt severely before watering and then the plant survival rate was recorded and analyzed.
TMAO di-hydrate applied exogenously, which increases the endogenous content of TMAO as if the plants were overexpressing an FMO protein at least 4 times, increases tomato plant survival under extreme drought conditions, where plants were allowed to fully wilt after three water-wilt cycles. Moneymaker tomato seeds were sown, grown and treated as described above. No statistical differences between modes of application (sprayed or TMAO di-hydrate watered) were observed on this experiment.

lettuce plants (Iceberg) = experiment: Yield production without drought stress, lettuce; settings: 1 g/l spray every 4 weeks for 3 months, no drought stress
Description: In order to determine the plant yield productivity under normal conditions, ‘Sabrina’, ‘Candonga’ and ‘Fortuna’ strawberry varieties, leek, lettuce, “Iceberg” variety, broccoli “Parthenon” variety, celery or kohlrabi plants, were grown under standard production conditions and 120 plants of each variety per treatment (where the treatment was a control comprising standard watering or 1 g/L of TMAO di-hydrate spray every four weeks) were analyzed. Plants were located in four (4) different positions for each group of 30 plants from the same treatment. Fruits, leaves or roots were harvested from individual plants and total weight was determined for each plant.
(§1) Root or leaves yield was determined in the plants treated with 1 g/l of TMAO di-hydrate or water as described above in order to evaluate the trade-off costs of the treatment with no drought stress.

corn plants ('FAO700') = experiment: Corn number of green leaves under limited water; settings: 30% water
Description: In order to determine the drought or drought stress tolerance after seed treatments with TMAO di-hydrate and germination in the presence of TMAO di-hydrate, barley “Hispanic” seeds, corn “FAO700” seeds, and “Sambro” sunflower seeds were surface sterilized for 3 minutes in ethanol 70%, then rinsed twice and finally included in a pre-treatment solution of 1 g/L TMAO di-hydrate solution (or just water) under shaking for 3 hours at a dose of 1 litre per Kg of seeds. Then, the seeds were sown in randomized plots of 10 sqm in a surface of 2.000 sqm. Chlorophyll content was measured 1 month before harvest. In corn irrigation was applied in half of the plots while the other half only received an initial establishment watering. The barley plots received 200 l of rain per m^2 through the growing season. Some of the plots received a second spray treatment with 1 g/liter of TMAO. […] At least 3 independent plants were treated per experiment.
TMAO di-hydrate applied exogenously which increases the endogenous content of TMAO as if the plants were overexpressing an FMO protein at least 4 times increases plant production in corn under limited water irrigation. Plants were irrigated with 30% of the water they normally require. ‘FAO700’ corn seeds were sown, grown and treated as described. Spray treatments with 1 g/L TMAO increased plant number of green leaves.

garlic plants = experiment: Yield production without drought stress, garlic; settings: 1 g/l spray every 4 weeks for 3 months, no drought stress
Description: as §1

## C[N+](C)(C)[O-].O.O [TMAO di-hydrate, trimethylamine N-oxide di-hydrate]
[1]
  Mean Fitness Value ± S.E.: 1.83 ± 0.21
[2]; irrigated with 5.5 g/L, 24 hours after drought recovery (FIG. 9)
  appearance of treated plants compared to untreated control: extremely healthy
[2]; irrigation 0.1 g/L, initial spray 0.1 g/L
  SURVIVAL RATE (%): 12.5 ± 8.5%
[2]; irrigation 0.1 g/L, initial spray 1 g/L
  SURVIVAL RATE (%): 41.6 ± 8.5%
[2]; irrigation 0.1 g/L, initial spray 5 g/L
  SURVIVAL RATE (%): 68.9 ± 8.5%
[2]; irrigation 0.1 g/L, initial spray water
  SURVIVAL RATE (%): 16.6 ± 8.5%
[2]; irrigation 1 g/L, initial spray 0.1 g/L
  SURVIVAL RATE (%): 0.0 ± 7.5%
[2]; irrigation 1 g/L, initial spray 1 g/L
  SURVIVAL RATE (%): 29.1 ± 7.5%
[2]; irrigation 1 g/L, initial spray 5 g/L
  SURVIVAL RATE (%): 33.3 ± 7.5%
[2]; irrigation 1 g/L, initial spray water
  SURVIVAL RATE (%): 4.1 ± 7.5%
[2]; irrigation 5 g/L, initial spray 0.1 g/L
  SURVIVAL RATE (%): 12.5 ± 8.0%
[2]; irrigation 5 g/L, initial spray 1 g/L
  SURVIVAL RATE (%): 16.6 ± 8.0%
[2]; irrigation 5 g/L, initial spray 5 g/L
  SURVIVAL RATE (%): 50.0 ± 8.0%
[2]; irrigation 5 g/L, initial spray water
  SURVIVAL RATE (%): 8.3 ± 8.0%
[2]; irrigation all regimes, initial spray 0.1 g/L
  SURVIVAL RATE (%): 12.5 ± 4.1%
[2]; irrigation all regimes, initial spray 1 g/L
  SURVIVAL RATE (%): 37.5 ± 4.1%
[2]; irrigation all regimes, initial spray 5 g/L
  SURVIVAL RATE (%): 56.6 ± 4.1%
[2]; irrigation water, initial spray 0.1 g/L
  SURVIVAL RATE (%): 29.1 ± 9.1%
[2]; irrigation water, initial spray 1 g/L
  SURVIVAL RATE (%): 62.5 ± 9.1%
[2]; irrigation water, initial spray 5 g/L
  SURVIVAL RATE (%): 74.2 ± 9.1%
Lettuce plants (Iceberg)
  Yield production, % Control: 112%
Corn plants ('FAO700'); 1 g/L (rows 3 and 4: spray, seed)
  increase in biomass production shown in green leaf production over untreated plants with 30% irrigation: 47%
Corn plants ('FAO700'); 1 g/L seed treatment
  AVERAGE NUMBER OF GREEN LEAVES: 8.50 ± 0.41
Corn plants ('FAO700'); 1 g/L spray
  AVERAGE NUMBER OF GREEN LEAVES: 8.50 ± 0.25
Garlic plants
  Yield production, % Control: 109%
